Measured values reported in patent US11667651B2, “Aminopyridine derivatives as phosphatidylinositol phosphate kinase inhibitors” (HiberCell, Inc., priority 2017, dated 2023).

Columns and labels:
Assay type in all cases: biochemical
PIP4K2A [1] = biological target: T1, PIP4K2A (Homo sapiens, UniProt P48426); assay: ADP-glo kinase assay PIP4K 2A (Table 3); parameters: made in house; host or cells: E. coli; conditions: compounds listed under IC50 bins
T1 sequence (P48426 1-406): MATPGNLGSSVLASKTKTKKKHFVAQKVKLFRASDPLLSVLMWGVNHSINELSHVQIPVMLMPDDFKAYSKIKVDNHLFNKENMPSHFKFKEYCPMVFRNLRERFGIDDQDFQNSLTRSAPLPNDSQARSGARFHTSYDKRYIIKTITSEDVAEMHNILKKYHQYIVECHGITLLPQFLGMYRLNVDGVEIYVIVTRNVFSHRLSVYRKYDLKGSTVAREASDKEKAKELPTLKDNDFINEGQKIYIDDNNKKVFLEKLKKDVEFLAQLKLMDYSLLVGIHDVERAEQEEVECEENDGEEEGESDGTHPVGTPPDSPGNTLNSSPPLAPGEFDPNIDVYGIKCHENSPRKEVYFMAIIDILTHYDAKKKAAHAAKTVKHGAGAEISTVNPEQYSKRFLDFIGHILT
Method in brief: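 ADP-Glo luminescence detected ADP after 1 h RT reaction started by ATP (60 μM solution) on full-length PIP4K2A (4 nM in mix) and PI(5)P diC8 (100 μM in mix), preceded by 15 min enzyme-compound preincubation in MOPS pH 7.2/25 mM MgCl2. Percent inhibition versus DMSO over 10 concentrations fitted for IC50.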

PIP4K2A [2] = biological target: T1, PIP4K2A; assay: Kinase Assay PIP4K2 A (Table 2); parameters: 4 nM PIP4K2A (full length protein, SignalChem); purchased SignalChem; conditions: compounds listed under IC50 bins
Method in brief: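 ADP-Glo luminescent read-out after 1 h room-temperature kinase reaction, started with 60 μM ATP solution following 15 min compound pre-incubation. Enzyme/substrate mix: 4 nM full-length PIP4K2A plus 100 μM PI(5)P diC8; buffer MOPS pH 7.2 with 25 mM MgCl2 and Tween 20. IC50 from 10-point, 3-fold titrations normalized to DMSO.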

PIP4K2B = biological target: T2, PIP4K2B (Homo sapiens, UniProt P78356); assay: Trans-FI P kinase assay PIP4K2B (Table 4); conditions: compounds listed under IC50 bins; read-out: Trans-FI P kinase assays: PIP4K2B IC50
T2 construct: made in house; host or cells: E. coli
T2 sequence (P78356 1-416): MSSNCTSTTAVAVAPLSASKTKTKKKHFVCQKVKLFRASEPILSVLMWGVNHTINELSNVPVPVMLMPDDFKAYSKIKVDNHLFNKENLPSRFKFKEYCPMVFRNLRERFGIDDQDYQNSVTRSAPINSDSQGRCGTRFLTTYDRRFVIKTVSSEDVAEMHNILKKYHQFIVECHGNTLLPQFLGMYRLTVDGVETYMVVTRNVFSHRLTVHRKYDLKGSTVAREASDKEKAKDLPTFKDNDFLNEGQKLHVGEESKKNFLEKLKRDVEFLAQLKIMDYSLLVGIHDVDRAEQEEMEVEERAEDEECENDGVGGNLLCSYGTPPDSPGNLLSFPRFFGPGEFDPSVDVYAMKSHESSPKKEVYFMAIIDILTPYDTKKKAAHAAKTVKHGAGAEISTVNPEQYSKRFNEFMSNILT
Method in brief: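 Transcreener FI detection (Ex 584/Em 623) of GDP, converted via calibration curve, gives IC50 from residual activity versus log concentration (highest 4.8 μM). Reaction: 80 μM PI5P plus DOPE carrier, 100 μM GTP, 5 nM GST-tagged enzyme, pH 7.3 HEPES with MgCl2 and 5% DMSO, 2 h after 1 h enzyme-compound preincubation at 27° C.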

| Structure (SMILES) | IC50 (PIP4K2A [1]) [nM] | IC50 (PIP4K2A [2]) [nM] | IC50 (PIP4K2B) [nM] |
| --- | --- | --- | --- |
| O=C1CCCN1c1ccc(-c2cnc(Nc3cnc4c(c3)N3C(=O)CC[C@H]3CO4)cn2)cc1 [Example 162, (S)-2-((5-(4-(2-oxopyrrolidin-1-yl)phenyl)pyrazin-2-yl)amino)-6,6a,7,8-tetrahydro-9H-pyrido[2,3-b]pyrrolo[1,2-d][1,4]oxazin-9-one] | 10 to 100 | 10 to 100 | 10 to 100 |
| O=C1CCCN1c1ccc(-c2ccc(Nc3cncc(N4CCN(Cc5cscn5)C4=O)c3)nc2)cc1 [Example 163, 1-(5-((5-(4-(2-oxopyrrolidin-1-yl)phenyl)pyridin-2-yl)amino)pyridin-3-yl)-3-(thiazol-4-ylmethyl)imidazolidin-2-one] | 1 to 10 | 1 to 10 | 10 to 100 |
| O=C1CCCN1c1ccc(-c2cnc(Nc3cncc(N4CCN(Cc5cscn5)C4=O)c3)cn2)cc1 [Example 164, 1-(5-((5-(4-(2-oxopyrrolidin-1-yl)phenyl)pyrazin-2-yl)amino)pyridin-3-yl)-3-(thiazol-4-ylmethyl)imidazolidin-2-one] | 1 to 10 | 1 to 10 | 10 to 100 |
| O=C1CCCN1c1ccc(-c2ccc(Nc3cncc(N4CCN(Cc5cocn5)C4=O)c3)nc2)cc1 [Example 165, 1-(oxazol-4-ylmethyl)-3-(5-((5-(4-(2-oxopyrrolidin-1-yl)phenyl)pyridin-2-yl)amino)pyridin-3-yl)imidazolidin-2-one] | 10 to 100 | 10 to 100 | 10 to 100 |
| O=C1CCCN1c1ccc(-c2ccc(Nc3cncc(N4CCN(Cc5cnco5)C4=O)c3)nc2)cc1 [Example 166, 1-(oxazol-5-ylmethyl)-3-(5-((5-(4-(2-oxopyrrolidin-1-yl)phenyl)pyridin-2-yl)amino)pyridin-3-yl)imidazolidin-2-one] | 10 to 100 | 10 to 100 | 10 to 100 |
| CC(C)c1cc(Nc2cnc3c(c2)N2C(=O)CC[C@H]2CO3)ncc1-c1ccc(N2CCCC2=O)cc1 [Example 177, (S)-2-((4-isopropyl-5-(4-(2-oxopyrrolidin-1-yl)phenyl)pyridin-2-yl)amino)-6,6a,7,8-tetrahydro-9H-pyrido[2,3-b]pyrrolo[1,2-d][1,4]oxazin-9-one] | 1 to 10 | ≤ 1 | 1 to 10 |

Next, values leading:

| IC50 (PIP4K2A [1]) [nM] | IC50 (PIP4K2A [2]) [nM] | IC50 (PIP4K2B) [nM] | Structure (SMILES) |
| --- | --- | --- | --- |
| 100 to 1000 | 100 to 1000 | 10 to 100 | COc1ncc(Nc2ccc(-c3ccc(N4CCCC4=O)cc3)cn2)cc1NC(C)=O [Example 158, N-(2-methoxy-5-((5-(4-(2-oxopyrrolidin-1-yl)phenyl)pyridin-2-yl)amino)pyridin-3-yl)acetamide] |
| 100 to 1000 | 10 to 100 | 10 to 100 | COc1ncc(Nc2ccc(-c3ccc(N4CCCC4=O)cc3)cn2)cc1NS(C)(=O)=O [Example 159, N-(2-methoxy-5-((5-(4-(2-oxopyrrolidin-1-yl)phenyl)pyridin-2-yl)amino)pyridin-3-yl)methanesulfonamide] |
| > 1000 | > 1000 | > 1000 | COc1ncc(Nc2ccc(-c3ccc(N4CCCC4=O)cc3)cn2)cc1N(C)C(C)=O [Example 160, N-(2-methoxy-5-((5-(4-(2-oxopyrrolidin-1-yl)phenyl)pyridin-2-yl)amino)pyridin-3-yl)-N-methylacetamide] |
| 100 to 1000 | 100 to 1000 | 10 to 100 | COc1ncc(Nc2ccc(-c3ccc(N4CCCC4=O)cc3)cn2)cc1N(C)S(C)(=O)=O [Example 161, N-(2-methoxy-5-((5-(4-(2-oxopyrrolidin-1-yl)phenyl)pyridin-2-yl)amino)pyridin-3-yl)-N-methylmethanesulfonamide] |
| 10 to 100 | 1 to 10 | 10 to 100 | CN1CCN(c2cncc(Nc3ccc(-c4ccc(N5CCCC5=O)cc4)cn3)c2)S1(=O)=O [Example 174, 1-(4-(6-((5-(5-methyl-1,1-dioxido-1,2,5-thiadiazolidin-2-yl)pyridin-3-yl)amino)pyridin-3-yl)phenyl)pyrrolidin-2-one] |
